Results on eleven molecules are retold here after ChEMBL document CHEMBL1201862, “PubChem BioAssay data set” (2004).

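48-hour exposure; five concentrations; linearly interpolated endpoints. Abbreviation: GI50, concentration required for 50% inhibition of growth.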 Calls of active or inactive are those of the source. No stated cut-off is given here; in the data, active = GI50 up to about 1.1 µM and inactive = higher.

Some test systems named below: M19-MEL; DMS-114; DLD-1; KM-20L2; SNB-78; LXFL 529; DMS-273; RXF 631; HOP-18.
Holding throughout (assay): inhibition of tumour cell growth, NCI panel, 48 h

For the molecule `O=C(Nc1ccc([N+](=O)[O-])cc1[N+](=O)[O-])C(=O)C(C(=O)c1ccc2ccccc2c1)C1OC(=O)c2ccccc21` (stereo not drawn), the GI50 is 12.2 µM (inactive) in the experiment with M19-MEL; 17.9 µM (inactive) in the experiment with DMS-114; 27.5 µM (inactive) in the experiment on DLD-1; 25.1 µM (inactive) with KM-20L2; 21.4 µM (inactive) in the experiment with SNB-78; 10.5 µM (inactive) with LXFL 529. Moreover, the GI50 in the experiment on DMS-273 was 10.2 µM (inactive); in the experiment with RXF 631, 16.6 µM (inactive).

For the molecule `CCCCCCCCCCCCCCCCOCC(COP(=O)([O-])OCC[N+](C)(C)C)OCCCCCCCCCCCCCCCC` (stereo not drawn), the GI50 in the experiment with HOP-18, in the experiment with M19-MEL, with DMS-114, in the experiment on DLD-1, in the experiment on KM-20L2 and with SNB-78 was > 100 µM (inactive) throughout. In addition, in the experiment with DMS-273, the GI50 was > 100 µM (inactive).

With `CC(=O)Nc1ccc(C2=N/C(=C\c3ccc(Cl)c(Cl)c3)C(=O)O2)cc1`, the GI50 was > 100 µM (inactive) in the experiment on HOP-18; 82.6 µM (inactive) in the experiment with M19-MEL; > 100 µM (inactive) in the experiment with DMS-114; 64 µM (inactive) with DLD-1; > 100 µM (inactive) with KM-20L2; > 100 µM (inactive) in the experiment on SNB-78. Also, the GI50 in the experiment with LXFL 529 was > 100 µM (inactive); with DMS-273, 80.4 µM (inactive); with RXF 631 it was > 100 µM (inactive).

With `CC(C)C1CN(C(=O)OCc2ccccc2)C2N1C(=O)C2(C)OCc1ccccc1` (stereo not drawn), the GI50 is 32.4 µM (inactive) with M19-MEL; 31.3 µM (inactive) in the experiment on DMS-114; 36 µM (inactive) with DLD-1; 43.9 µM (inactive) in the experiment on KM-20L2; 28.7 µM (inactive) with LXFL 529; 35.3 µM (inactive) in the experiment on DMS-273. The GI50 in the experiment on RXF 631 is 40.6 µM (inactive).

On to `COc1cc2c(c(OC)c1OC)-c1[nH]ncc1CC2`, for which the GI50 in the experiment on HOP-18, in the experiment with M19-MEL, with DMS-114, in the experiment on DLD-1, in the experiment on KM-20L2 and in the experiment with SNB-78 was > 100 µM (inactive) each time. Also, the GI50 with LXFL 529 and in the experiment on DMS-273 was > 100 µM (inactive) each time.

As to `CN(c1ccccc1)c1c(-c2ccccc2)c(=O)oc2c1ccc1occc12`, the GI50 in the experiment on HOP-18, in the experiment on M19-MEL, in the experiment on DMS-114, with DLD-1, in the experiment on SNB-78 and with DMS-273 was > 100 µM (inactive) in each case.

Take `COc1cc(/C=C2\C(=O)N(C(=O)Cc3ccccc3)N=C2C)cc(OC)c1OC`: the GI50 in the experiment with HOP-18, in the experiment on M19-MEL, in the experiment with DMS-114, in the experiment with DLD-1, in the experiment with SNB-78 and in the experiment on DMS-273 was > 100 µM (inactive) each time.

On to `O=C(CCC(=O)Nc1ccc(Cl)c(Cl)c1)CC(=O)c1ccc(Br)cc1`, for which the GI50 in the experiment on HOP-18, in the experiment on M19-MEL, in the experiment on DMS-114, in the experiment on DLD-1, with KM-20L2 and in the experiment with SNB-78 was > 100 µM (inactive) in each case. The GI50 is 61.8 µM (inactive) with LXFL 529 and > 100 µM (inactive) with RXF 631.

As for `C=C1CC(OC)(C(O)C(=O)N[C@H]2OCO[C@H]3C2O[C@H](C[C@@H](CO)OC)C(C)(C)C3OC)O[C@H](C)[C@@H]1C` (stereo partly drawn), the GI50 in the experiment on HOP-18, in the experiment with M19-MEL, in the experiment with DMS-114, in the experiment on DLD-1, with KM-20L2 and in the experiment on DMS-273 was < 0.00931 µM (active) each time.

On to `Cn1c(=O)nc2n(-c3ccc(Cl)cc3Cl)c3ccccc3nc-2c1=O`, for which the GI50 was 11 µM (inactive) in the experiment with HOP-18; 1.02 µM (active) in the experiment with M19-MEL; 1.94 µM (inactive) with DMS-114; 3.29 µM (inactive) with DLD-1; 0.861 µM (active) in the experiment on KM-20L2; 14.6 µM (inactive) in the experiment with SNB-78.

In the case of `Nc1c(C(=O)Nc2ccc(C3=NCCN3)cc2)cccc1C(=O)Nc1ccc(C2=NCCN2)cc1`, the GI50 in the experiment with HOP-18 was > 100 µM (inactive); with M19-MEL, > 100 µM (inactive); in the experiment on DMS-114, > 100 µM (inactive); in the experiment with DLD-1, > 100 µM (inactive); with KM-20L2 it was > 100 µM (inactive); in the experiment on SNB-78, > 83.8 µM (inactive). In addition, the GI50 in the experiment on DMS-273 was > 100 µM (inactive).
